Measurements: patent US9586914B2, “Modulators of C3a receptors” (THE UNIVERSITY OF QUEENSLAND, priority 2011, dated 2017)
“Also recorded” adds a separate entry of the source. Like-named read-outs stand apart in the source and are kept apart here.

Key:
C3aR [1] = target: T1, C3aR (Homo sapiens, UniProt Q16581); test: Calcium mobilization assay in HMDM (agonist/antagonist activity); assay type: cell-based
T1 construct: peripheral blood mononuclear cells were isolated from buffy coat (obtained from Australian Red Cross Blood Service, Kelvin Grove); endogenous in cells; host or cells: primary human monocyte-derived macrophages (HMDM) differentiated from CD14+ monocytes of donor buffy coat
T1 sequence (Q16581 1-482): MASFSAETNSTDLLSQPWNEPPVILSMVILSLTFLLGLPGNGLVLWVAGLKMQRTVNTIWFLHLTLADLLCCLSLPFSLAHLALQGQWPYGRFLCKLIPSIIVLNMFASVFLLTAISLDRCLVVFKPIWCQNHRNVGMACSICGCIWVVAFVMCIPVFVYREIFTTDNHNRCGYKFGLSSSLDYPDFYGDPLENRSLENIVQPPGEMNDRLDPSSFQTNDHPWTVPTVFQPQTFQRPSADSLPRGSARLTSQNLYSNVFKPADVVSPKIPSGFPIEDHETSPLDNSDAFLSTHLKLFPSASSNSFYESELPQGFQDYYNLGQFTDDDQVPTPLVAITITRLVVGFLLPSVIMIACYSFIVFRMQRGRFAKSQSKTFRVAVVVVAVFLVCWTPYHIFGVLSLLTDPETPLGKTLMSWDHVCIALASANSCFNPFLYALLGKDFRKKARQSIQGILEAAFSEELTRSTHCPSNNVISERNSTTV
Summary of the method: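 Human monocyte-derived macrophages, 5×10^4 cells/well, loaded 1 h at 37 °C with 4 μM Fluo-3 in HBSS/HEPES/probenecid buffer, pH 7.4. Agonist mode: calcium release read 300 s; antagonist mode: 900 s compound preincubation then agonist, read 300 s (ex 485/em 520 nm); compared with hC3a.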

C3a receptor (C3aR) = target: T2, C3a receptor (C3aR) (Homo sapiens, UniProt Q16581); test: Competitive binding with [^125I]-C3a in HMDM; details: for -Log IC50: Table 14, binding affinity for C3aR on HMDM
T2 construct: peripheral blood mononuclear cells were isolated from buffy coat (obtained from Australian Red Cross Blood Service, Kelvin Grove); endogenous in cells; host or cells: primary human monocyte-derived macrophages (HMDM) differentiated from CD14+ monocytes of donor buffy coat
T2 sequence (Q16581 1-482): T1 sequence (Q16581 1-482)
Summary of the method: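 IC50 values are geometric means, with −log IC50 computed per experiment and given as arithmetic mean ± SE. Cells were CD14+ monocytes from buffy-coat PBMC, differentiated to macrophages and used on day 7. Unbound label was removed by GF/B filtration with 3 cold washes in 50 mM Tris-HCl pH 7.4.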

[2] = test system: IL1B, IL8, CCL3, EGR1, FOSB and TNF gene expression in HMDMs; test: Regulation of inflammatory genes in HMDM (qRT-PCR); assay type: cell-based, human
Text: Human monocyte-derived macrophages (HMDMS) were isolated from buffy coat of anonymous donors provided by the Australian Red Cross Blood Service at Kelvin Grove, Queensland, Australia. White blood cells were separated from other blood components into different layers using Ficoll-Paque Plus Density Centrifugation (GE Healthcare Bio-Science, Uppsala, Sweden) according to manufacturer's instruction. The isolated white blood cells were repeatedly washed with ice-cold water to remove contaminating erythrocytes. CD14^+ monocytes were positively selected from white blood cells using CD14^+ Macs Magnetic Beads (Miltenyi biotech, Auburn, Calif., USA) after successive magnetic sorting and washings. CD14^+ monocytes (1.5×10^6 cells/mL) were seeded in 10 mL of IMDM supplemented with 10% fetal calf serum (FBS), 10 U/mL streptomycin, 10 U/mL penicillin and 2 mmol L-glutamine (Invitrogen). To generate HMDMS, […] of recombinant human macrophage colony stimulating factor (M-CSF) (Peprotech Inc., rocky Hill, N.J., USA) was added for differentiation. HMDMS were maintained at 37° C. in a humidified incubator with 5% CO2 for a week to fully differentiate. At day 7, the adhered HMDMS were harvested by gentle scraping in saline solution.
HMDMs (2×10^6) in 2 mL of IMDM medium were transferred into each well on a 6-well plate. The cells were left to incubate for 6 h to allow adhesion before being serum starved in serum free IMDM to reduce background noise of the C3a treatment. In the time response experiment, cells were treated with 10 nM of C3a or agonist (compound 8 or 64) for 0.5, 1, 2 or 6 h. In concentration response experiments, cells were treated with 1, 10, 100 or 300 nM for 1 h. To prepare the samples for the microarray experiments, cells were treated with agonist at 100-300 nM for 30 min or 1 h in the absence or presence of the antagonist (e.g. SB-290157 or antagonists). […] Cells were washed with saline solution at the end of each treatment before the RNA extraction step.
Total RNA was extracted from cells using RNeasy Mini Plus kit (Qiagen, USA) according to the manufacturer's instructions. The concentration of the RNA was determined by measuring absorbance at λ=260/280 […] on a nanodrop spectrophotometer (Thermo Scientific), according to the manufacturer's instructions.
Total RNA (2-5 μg) was reverse transcribed with Superscript III (Invitrogen, USA) using random oligo dT primer. Reagents were incubated (50 min, 50° C.; then 10 min, 70° C.) in thermal cyclers (Bio-Rad) to complete the reaction, cDNA samples were stored at −20° C. until further use. All RNA work was performed on ice (4° C.) to prevent degradation of the RNA samples.
cDNA (0.5 μg) samples were prepared with 5 μL SYBR® Green PCR master mix (Applied Biosystems™, CA, USA), 2 μL relevant primers (2 μM) and 1 μL dH2O before being analysed using an ABI 7900HT Fast Real-Time PCR System (Applied Biosystems™, CA, USA) according to the manufacturer's specifications. Fluorescence data was collected during the extension phase (60° C.). The concentration response data for each sample was then normalised against the same data for control housekeeping gene, (18S) to quantify and generate gene expression data. All samples were done in at least duplicate. Primers were designed using the Primer-BLAST software (National Center for Biotechnology Information, USA). Primers contained, amplicons that cross exon-exon boundaries to prevent amplification of genomic DNA. […]

C3aR [3] = target: T1, C3aR; test: Desensitization experiments (Ca^2+ efflux after hC3a desensitization); assay type: cell-based; details: hC3a 3 μM first; second addition of 1 μM compound; HMDM
Experimental: Desensitization experiments were used to measure the selectivity of various ligands for C3aR, since this can help to clarify whether the non-peptidic ligands bind selectively to C3aR over other GPCRs that signal through intracellular calcium release.
The hC3a (3 μM) was administered to human monocyte derived macrophage cells, which produces an efflux of intracellular Ca^2+ that dissipates after 4-5 mins (FIGS. 4A and 4B). A second addition of 3 μM hC3a after 5 mins has no effect, due to desensitization of the receptor through either receptor (C3a receptor) phosphorylation or receptor internalization from the cell surface.

[4] = Table 8, HMDM, read-out: Receptor Binding Affinity ^125I IC50
[5] = Table 9, Ca^2+ mobilization, HMDM
[6] = quoted in text of Example 98, read-out: EC50
[7] = Table 6, competitive binding with [^125I]-C3a, HMDM
[8] = Table 6, competitive binding with [^125I]-C3a, HMDM, read-out: IC50 (converted)
[9] = Table 11, [^125I]-C3a, HMDM, read-out: Receptor Binding Affinity IC50
[10] = Table 10, HMDM, read-out: Antagonist Activity Ca^2+ IC50

| Structure (SMILES) | IC50 (C3a receptor (C3aR); [4]) | -Log IC50 (C3a receptor (C3aR)) | pEC50 ± SEM (C3aR [1]; [5]) | EC50 (C3aR [1]; [6]) | pIC50 ± SEM (C3a receptor (C3aR); [7]) | IC50 (C3a receptor (C3aR); [8]) | IC50 (C3a receptor (C3aR); [9]) | IC50 (C3aR [1]; [10]) | Ca^2+ efflux on addition after first desensitization with hC3a (selectivity for C3aR over other GPCRs) (C3aR [3]) | also measured |
| --- | --- | --- | --- | --- | --- | --- | --- | --- | --- | --- |
| CC[C@H](C)[C@H](NC(=O)OC(C)(C)C)c1nc(C(=O)N[C@@H](CCCNC(=N)N)C(=O)O)co1 [Compound 2] |  |  | 7.57 ± 0.11 | 0.027 µM | 7.53 ± 0.10 | 0.03 µM |  |  | did not produce calcium efflux |  |
| CC[C@H](C)[C@H](NC(=O)CCC(=O)c1ccc(-c2ccccc2)cc1)c1nc(C(=O)N[C@@H](CCCNC(=N)N)C(=O)O)co1 [Compound 16, 4-(biphenyl-4-yl)-4-oxobutanoic acid-Isoleucine-Oxazole-Arginine-OH] |  |  | 8.12 ± 0.21 | 0.008 µM | 6.81 ± 0.07 | 0.155 µM |  |  | did not produce calcium efflux |  |
| CC[C@H](C)[C@H](NC(=O)OC(C)(C)C)c1nc(C(=O)N[C@@H](CCCNC(=N)N)C(=O)O)c(C)o1 [Compound 25, Boc-isoleucine-5-methyl-oxazole-arginine-OH] |  |  |  |  |  |  | 0.015 µM |  | caused a second efflux of intracellular Ca^2+ | EC50 (C3aR [1]; Table 9, Ca^2+ mobilization, HMDM, read-out: EC50): 0.045 µM; EC50 (C3aR [1]; Table 11, Ca^2+ mobilisation, HMDM, read-out: Apparent Antagonist Activity EC50): 0.045 µM; EC50 (C3aR [1]; Table 11, Ca^2+ mobilisation, HMDM, read-out: Apparent Antagonist Activity pEC50 ± SE (converted)): 0.0398 µM; IC50 (C3a receptor (C3aR); Table 6, competitive binding with [^125I]-C3a, HMDM, read-out: pIC50 ± SEM (converted)): 0.0138 µM; IC50 (C3a receptor (C3aR); Table 11, [^125I]-C3a, HMDM, read-out: Receptor Binding Affinity pIC50 ± SE (converted)): 0.0138 µM |

Now from value to compound, other results behind:

| IC50 (C3a receptor (C3aR); [4]) | -Log IC50 (C3a receptor (C3aR)) | pEC50 ± SEM (C3aR [1]; [5]) | EC50 (C3aR [1]; [6]) | pIC50 ± SEM (C3a receptor (C3aR); [7]) | IC50 (C3a receptor (C3aR); [8]) | IC50 (C3a receptor (C3aR); [9]) | IC50 (C3aR [1]; [10]) | Structure (SMILES) | Ca^2+ efflux on addition after first desensitization with hC3a (selectivity for C3aR over other GPCRs) (C3aR [3]) | also measured |
| --- | --- | --- | --- | --- | --- | --- | --- | --- | --- | --- |
| 0.0076 µM | 8.0 |  |  |  |  |  |  | Cc1nc(C(c2ccccc2)c2ccccc2)[nH]c1C(=O)N[C@@H](CCCNC(=N)N)C(=O)O [Compound 64, 2-Diphenylmethyl-4-methyl imidazole-5-carboxyl-Arg-OH] |  | EC50 (C3aR [1]; Table 10, HMDM, read-out: Agonist Activity EC50): 0.024 µM; Function at C3aR (agonist / antagonist) (C3aR [1]; text of Example 100): potent full agonist; Induction of gene expression of IL1B, IL8, CCL3, EGR1, FOSB and TNF ([2]; HMDMs, 300 nM, 30 minutes, qRT-PCR, fold change from control): significantly induce gene expression; also recorded: induced expression of inflammatory genes |
| 0.011 µM | 7.9 |  |  |  |  |  | 1300 nM | N=C(N)NCCC[C@H](NC(=O)c1nc(C(c2ccccc2)c2ccccc2)no1)C(=O)O [Compound 67, 3-Diphenylmethyl-1-oxa-2,4-diazole-5-carboxyl-Arginine-OH] |  |  |
| 0.011 µM |  | 5.52 ± 0.08 |  | 7.42 ± 0.06 | 0.038 µM | 0.038 µM | 1300 nM | NC(N)=NCCC[C@H](NC(=O)COCC(c1ccccc1)c1ccccc1)C(=O)O [SB290157, reference compound] |  | IC50 (C3aR [1]; Table 9, antagonist SB290157, Ca^2+ mobilization, HMDM, read-out: IC50 (printed in the EC50 (nM) column)): 3050 nM; Apparent Antagonist Activity pEC50 ± SE (symbol) (C3aR [1]; Table 11): * (The compounds show no agonist activity in calcium mobilisation assays up to 100 μM.); Apparent Antagonist Activity pIC50 ± SE (C3aR [1]; Table 11, Ca^2+ mobilisation, HMDM): 5.6 ± 0.09; IC50 (C3aR [1]; Table 11, Ca^2+ mobilisation, HMDM, read-out: Apparent Antagonist Activity IC50): 2700 nM; Receptor Binding Affinity pIC50 ± SE (C3a receptor (C3aR); Table 11, [^125I]-C3a, HMDM): 7.42 ± 0.06; Effect of antagonist on gene induction by C3a or compounds 8 or 64 ([2]; SB290157 5 μM, 30 mins preincubation): prevented |
